Laboratory results from US11713338B2, “Cyclic peptides multimers targeting α-4-β-7 integrin” (priority 2016, dated 2023).

Columns and labels:
[1] = biological target: T1, recombinant integrin α4β1 (Homo sapiens, UniProt P05556+P13612); test: Integrin α4β1—VCAM-1 competition ELISA; assay type: binding; conditions: read-out: ELISA a4b1 Assay IC50
T1 construct: purchased R&D Systems 5397-A3-050
Description: Integrin α4β1—VCAM-1 Competition ELISA
The plate was incubated at 4° C. overnight. […] The plate was then incubated for 1 hour at room temperature. The plate was washed three times with wash buffer (50 mM Tris, 100 mM NaCl, 1 mM MnCl2, 0.05% Tween). To each well, 50 μl of compound diluted in assay buffer was added by transfer from a compound serial dilution plate. […] The plate was incubated at room temperature with shaking (300 rpm) for 2 hours to reach binding equilibrium. Then the plate was washed three times in wash buffer and 100 μl anti-human IgG Fc specific-HRP (Abcam, Ab97225) diluted at 1:2000 in assay buffer was added to each well. The plate was incubated at room temperature for 1 hour under agitation.

[2] = biological target: T2, recombinant integrin α4β7 (Homo sapiens, UniProt P13612+P26010, DEL724-798); test: Integrin α4β7—MAdCAM-1 ELISA competition assay; assay type: binding; conditions: for IC50: read-out: ELISA a4b7 Assay IC50; for ELISA Assay Ratio b1/b7: ratio of a4b1 to a4b7 ELISA IC50
T2 construct: purchased R&D Systems 5397-A3-050
T2 sequence (P13612 34-970 limits assumed): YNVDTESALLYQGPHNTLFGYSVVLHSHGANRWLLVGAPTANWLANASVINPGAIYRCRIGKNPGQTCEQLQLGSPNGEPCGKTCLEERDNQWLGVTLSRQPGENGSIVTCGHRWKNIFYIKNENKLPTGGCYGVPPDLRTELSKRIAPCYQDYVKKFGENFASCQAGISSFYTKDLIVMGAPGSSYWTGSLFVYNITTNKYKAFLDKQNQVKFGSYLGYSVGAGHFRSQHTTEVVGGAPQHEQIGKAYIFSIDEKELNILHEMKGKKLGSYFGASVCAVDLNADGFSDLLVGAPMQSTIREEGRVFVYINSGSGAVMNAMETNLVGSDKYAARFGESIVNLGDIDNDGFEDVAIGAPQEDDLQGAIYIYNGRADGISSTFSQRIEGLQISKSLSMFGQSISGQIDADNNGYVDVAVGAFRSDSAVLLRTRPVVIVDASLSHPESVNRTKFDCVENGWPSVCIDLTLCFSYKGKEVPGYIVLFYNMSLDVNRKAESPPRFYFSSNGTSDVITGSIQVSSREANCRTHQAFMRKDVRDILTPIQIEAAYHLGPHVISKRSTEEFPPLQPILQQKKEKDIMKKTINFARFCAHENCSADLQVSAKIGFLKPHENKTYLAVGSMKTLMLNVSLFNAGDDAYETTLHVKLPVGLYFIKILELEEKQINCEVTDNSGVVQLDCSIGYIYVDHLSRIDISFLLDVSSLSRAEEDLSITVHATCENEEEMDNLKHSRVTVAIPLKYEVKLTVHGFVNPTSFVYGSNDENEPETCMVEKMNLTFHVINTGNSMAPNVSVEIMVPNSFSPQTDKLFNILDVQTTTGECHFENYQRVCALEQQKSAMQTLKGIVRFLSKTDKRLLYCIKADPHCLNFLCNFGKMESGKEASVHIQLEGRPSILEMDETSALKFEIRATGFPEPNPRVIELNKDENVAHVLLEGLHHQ
T2 sequence (P26010 20-723 limits assumed): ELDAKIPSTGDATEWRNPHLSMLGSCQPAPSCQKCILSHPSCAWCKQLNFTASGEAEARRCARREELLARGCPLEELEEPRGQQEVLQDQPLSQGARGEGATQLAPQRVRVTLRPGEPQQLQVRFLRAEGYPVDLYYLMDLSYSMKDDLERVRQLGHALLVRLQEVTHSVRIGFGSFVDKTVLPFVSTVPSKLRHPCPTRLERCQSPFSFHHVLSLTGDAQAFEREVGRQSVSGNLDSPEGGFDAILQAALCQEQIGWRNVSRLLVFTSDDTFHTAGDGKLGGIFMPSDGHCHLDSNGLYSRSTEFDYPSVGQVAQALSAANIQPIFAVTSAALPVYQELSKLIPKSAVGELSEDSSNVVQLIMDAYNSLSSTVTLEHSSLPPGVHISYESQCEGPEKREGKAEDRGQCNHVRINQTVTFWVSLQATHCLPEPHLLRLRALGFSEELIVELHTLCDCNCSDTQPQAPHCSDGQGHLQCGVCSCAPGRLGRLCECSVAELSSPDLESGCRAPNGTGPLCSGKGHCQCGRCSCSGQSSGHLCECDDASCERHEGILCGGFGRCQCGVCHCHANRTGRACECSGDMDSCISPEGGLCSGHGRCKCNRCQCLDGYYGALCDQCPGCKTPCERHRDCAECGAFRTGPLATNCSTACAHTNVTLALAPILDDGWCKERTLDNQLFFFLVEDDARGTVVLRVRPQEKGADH
Description: Integrin α4β7—MAdCAM-1 ELISA Competition Assay
The plate was incubated at 40C overnight. […] The plate was then incubated for 1 hour at room temperature. The plate was washed three times with wash buffer (50 mM Tris, 100 mM NaCl, 1 mM MnCl2, 0.05% Tween). To each well, 50 μl of compound diluted in assay buffer was added by transfer from a compound serial dilution plate. […] The plate was incubated at room temperature with shaking (300 rpm) for 2 hours to reach binding equilibrium. […] The plate was incubated at room temperature for 1 hour under agitation.

T1 sequence (P05556 21-728 limits assumed, one chain of several): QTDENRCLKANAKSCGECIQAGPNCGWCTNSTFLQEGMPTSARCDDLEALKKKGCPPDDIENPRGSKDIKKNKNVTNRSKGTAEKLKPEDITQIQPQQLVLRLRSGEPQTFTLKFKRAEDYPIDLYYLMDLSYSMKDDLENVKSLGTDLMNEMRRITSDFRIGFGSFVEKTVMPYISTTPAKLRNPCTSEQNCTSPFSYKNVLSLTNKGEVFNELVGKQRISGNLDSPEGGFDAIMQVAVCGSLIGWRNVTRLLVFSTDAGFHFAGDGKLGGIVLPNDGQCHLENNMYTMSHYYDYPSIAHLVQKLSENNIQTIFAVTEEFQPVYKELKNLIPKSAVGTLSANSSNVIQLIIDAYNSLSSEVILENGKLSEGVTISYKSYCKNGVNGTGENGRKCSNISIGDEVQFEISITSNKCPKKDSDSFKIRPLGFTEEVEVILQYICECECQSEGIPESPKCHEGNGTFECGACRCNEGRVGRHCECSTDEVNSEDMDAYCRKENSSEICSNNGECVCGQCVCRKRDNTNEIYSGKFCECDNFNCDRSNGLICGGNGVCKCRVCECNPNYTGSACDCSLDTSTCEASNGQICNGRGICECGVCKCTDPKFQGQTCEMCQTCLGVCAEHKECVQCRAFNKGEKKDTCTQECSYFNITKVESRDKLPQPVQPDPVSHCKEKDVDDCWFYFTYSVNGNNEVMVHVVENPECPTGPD

Compound | IC50 [1] [nM] | IC50 [2] [nM] | ELISA Assay Ratio b1/b7 [2]
CC(C)C[C@@H]1NC(=O)[C@H]2c3ccccc3CCN2C(=O)[C@@H]2CCCN2[C@H](C(=O)NC(C)(C)C)[C@H](C)NC(=O)[C@H]([C@@H](C)O)NC(=O)[C@H](CC(=O)O)NC1=O [Compound 98] | 58 |  | 
CC(C)C[C@@H]1NC(=O)C[C@H](CCCCN)NC(=O)[C@H](Cc2ccccc2-c2cccnc2Br)NC(=O)[C@@H]2CCCN2[C@H](C(=O)NC(C)(C)C)[C@H](C)NC(=O)[C@H]([C@@H](C)O)NC(=O)[C@H](CC(=O)O)NC1=O [Compound 297] |  | 37 | 
CC(C)C[C@@H]1NC(=O)C[C@H](CCCCN)NC(=O)[C@H](Cc2ccccc2-c2cc(C(F)(F)F)ccc2C(F)(F)F)NC(=O)[C@@H]2CCCN2[C@H](C(=O)NC(C)(C)C)[C@H](C)NC(=O)[C@H]([C@@H](C)O)NC(=O)[C@H](CC(=O)O)NC1=O [Compound 287] |  | 84 | 
CC(C)C[C@@H]1NC(=O)[C@H](Cc2csc(-c3cccnc3)n2)NC(=O)[C@@H]2CCCN2[C@H](C(=O)NC(C)(C)C)[C@H](C)NC(=O)[C@H]([C@@H](C)O)NC(=O)[C@H](CC(=O)O)NC1=O [Compound 96] |  | 138 | 
CC(C)C[C@@H]1NC(=O)[C@@H]2C[C@@H](O)CN2C(=O)[C@@H]2CCCN2[C@H](C(=O)NC(C)(C)C)[C@H](C)NC(=O)[C@H]([C@@H](C)O)NC(=O)[C@H](CC(=O)O)NC1=O [Compound 63] |  | 107 | 
CC(C)C[C@@H]1NC(=O)C[C@H](CCCCN)NC(=O)[C@H](Cc2ccccc2)N(C)C(=O)[C@@H]2CCCN2[C@H](C(=O)NC(C)(C)C)[C@H](C)NC(=O)[C@H]([C@@H](C)O)NC(=O)[C@H](CC(=O)O)NC1=O [Compound 264] |  | 117 | 
CC[C@H](C)[C@@H]1NC(=O)[C@H](CC(=O)O)NC(=O)[C@H](CC(C)C)NC(=O)C[C@H](CCCCN)NC(=O)[C@H](Cc2ccc(CN)cc2)NC(=O)[C@@H]2CCCN2[C@H](C(=O)NC(C)(C)C)[C@H](C)NC1=O [Compound 215] |  | 33 | 12.4
CC(C)C[C@@H]1NC(=O)c2ccc(N3CCOCC3)c(c2)CNC(=O)[C@@H]2CCCN2[C@H](C(=O)NC(C)(C)C)[C@H](C)NC(=O)[C@H]([C@@H](C)O)NC(=O)[C@H](CC(=O)O)NC1=O [Compound 379] |  | 33 | 4.9
CC(C)C[C@@H]1NC(=O)[C@H](Cc2ccc(-c3ccccc3)cc2)NC(=O)[C@@H]2CCCN2[C@H](C(=O)NC(C)(C)C)[C@H](C)NC(=O)[C@H]([C@@H](C)OCc2ccccc2)NC(=O)[C@H](CC(=O)O)NC1=O [Compound 18] |  | 120 | 
COc1cccc(Cl)c1-c1ccccc1C[C@@H]1NC(=O)[C@@H]2CCCN2[C@H](C(=O)NC(C)(C)C)[C@H](C)NC(=O)[C@H]([C@@H](C)O)NC(=O)[C@H](CC(=O)O)NC(=O)[C@H](CC(C)C)NC(=O)C[C@H](CCCCN)NC1=O [Compound 279] |  | 100 | 
CC(C)C[C@@H]1NC(=O)C[C@H](CCCCN)NC(=O)[C@H](Cc2ccccc2-c2cc(C(F)(F)F)ccc2C(F)(F)F)NC(=O)[C@@H]2CCCN2[C@H](C(=O)NC(C)(C)C)[C@H](C)NC(=O)[C@H]([C@@H](C)O)NC(=O)[C@H](CC(=O)O)NC1=O [Compound 286] |  | 64 | 
CC(C)C[C@@H]1NC(=O)[C@H](Cc2ccc(O)cc2)NC(=O)[C@@H]2CCCN2C(C(=O)NC(C)(C)C)C(CSc2ccccc2)NC(=O)[C@H]([C@@H](C)O)NC(=O)[C@H](CC(=O)O)NC1=O (some centres unmarked) [Compound 3] |  |  | 2.474
CC(C)C[C@@H]1NC(=O)[C@H]2CCCCN2C(=O)[C@H](Cc2ccccc2-c2ccccc2)NC(=O)[C@@H]2CCCN2[C@H](C(=O)NC(C)(C)C)[C@H](C)NC(=O)[C@H]([C@@H](C)O)NC(=O)[C@H](CC(=O)O)NC1=O [Compound 134] |  | 23 | 7.6
CC(C)C[C@@H]1NC(=O)CNC(=O)[C@H](Cc2ccc(CN)cc2)NC(=O)[C@@H]2CCCN2[C@H](C(=O)NC(C)(C)C)[C@H](C)NC(=O)[C@H]([C@@H](C)O)NC(=O)[C@H](CC(=O)O)NC1=O [Compound 165] |  | 128 | 22.8
CC(C)C[C@@H]1NC(=O)[C@@H]2c3ccccc3CN2C(=O)[C@@H]2CCCN2[C@H](C(=O)NC(C)(C)C)[C@H](C)NC(=O)[C@H]([C@@H](C)O)NC(=O)[C@H](CC(=O)O)NC1=O [Compound 99] |  | 57 | 
CC(C)C[C@@H]1NC(=O)C[C@H](CCCCN)NC(=O)[C@H](Cc2ccccc2-c2ncccc2Br)NC(=O)[C@@H]2CCCN2[C@H](C(=O)NC(C)(C)C)[C@H](C)NC(=O)[C@H]([C@@H](C)O)NC(=O)[C@H](CC(=O)O)NC1=O [Compound 294] |  | 45 | 
CC(C)C[C@@H]1NC(=O)C[C@H](CCCCN)NC(=O)[C@H](Cc2ccc(CN)cc2)NC(=O)[C@@H]2CCCN2[C@H](C(=O)NC(C)(C)C)[C@H](C)NC(=O)[C@H](C(C)C)NC(=O)[C@H](CC(=O)O)NC1=O [Compound 254] |  | 55 | 33.0
CC(C)C[C@@H]1NC(=O)c2ccc(N(C)C)c(c2)CNC(=O)[C@@H]2CCCN2[C@H](C(=O)NC(C)(C)C)[C@H](C)NC(=O)[C@H]([C@@H](C)O)NC(=O)[C@H](CC(=O)O)NC1=O [Compound 380] |  | 41 | 
CC(C)C[C@@H]1NC(=O)[C@H]2C[C@H](O)CN2C(=O)[C@H](Cc2ccc(O)cc2)NC(=O)[C@@H]2CCCN2[C@H](C(=O)NC(C)(C)C)[C@H](C)NC(=O)[C@H]([C@@H](C)O)NC(=O)[C@H](CC(=O)O)NC1=O [Compound 140] |  | 53 | 9.6
CC(C)C[C@@H]1NC(=O)C[C@H](CCCCN)NC(=O)[C@H](Cc2ccc(-c3ccccc3OC(F)(F)F)cc2)NC(=O)[C@@H]2CCCN2[C@H](C(=O)NC(C)(C)C)[C@H](C)NC(=O)[C@H]([C@@H](C)O)NC(=O)[C@H](CC(=O)O)NC1=O [Compound 262] |  | 80 | 
CC(C)C[C@@H]1NC(=O)C[C@H](CCCCN)NC(=O)[C@H](Cc2ccc3ccccc3c2)NC(=O)[C@@H]2CCCN2[C@H](C(=O)NC(C)(C)C)[C@H](C)NC(=O)[C@H]([C@@H](C)O)NC(=O)[C@H](CC(=O)O)NC1=O [Compound 203] |  | 55 | 
CC(C)C[C@@H]1NC(=O)CN(C)C(=O)[C@H](Cc2cscn2)NC(=O)[C@@H]2CCCN2[C@H](C(=O)NC(C)(C)C)[C@H](C)NC(=O)[C@H]([C@@H](C)O)NC(=O)[C@H](CC(=O)O)NC1=O [Compound 164] |  | 127 | 
CC(C)C[C@@H]1NC(=O)C[C@H](CCCCN)NC(=O)[C@H](Cc2cccc(-c3ccc(F)c(F)c3)c2)NC(=O)[C@@H]2CCCN2[C@H](C(=O)NC(C)(C)C)[C@H](C)NC(=O)[C@H]([C@@H](C)O)NC(=O)[C@H](CC(=O)O)NC1=O [Compound 267] |  | 44 | 
CCC[C@@H]1NC(=O)[C@@H]2CCCN2[C@H](C(=O)NC(C)(C)C)[C@H](C)NC(=O)[C@H]([C@@H](C)O)NC(=O)[C@H](CC(=O)O)NC(=O)[C@H](CC(C)C)NC1=O [Compound 71] |  | 184 | 4.4
CC(C)C[C@@H]1NC(=O)C[C@H]2CCCN2C(=O)[C@H](Cc2ccc(CN)cc2)NC(=O)[C@@H]2CCCN2[C@H](C(=O)NC(C)(C)C)[C@H](C)NC(=O)[C@H]([C@@H](C)O)NC(=O)[C@H](CC(=O)O)NC1=O [Compound 230] |  | 120 | 
